US20230023559A1, “ARYLMETHYLENE HETEROCYCLIC COMPOUNDS AS KV1.3 POTASSIUM SHAKER CHANNEL BLOCKERS” (D. E. Shaw Research, LLC, priority 2019, published 2023)

Target: T1, Kv1.3 potassium channel (Homo sapiens, UniProt P22001)
T1 construct: expressed in transfected cells
Assay: Kv1.3 potassium channel blocker activity, automated whole-cell patch clamp (Patchliner)
Format: cell-based
Conditions: CHO-K1 cells stably expressing Kv1.3; whole cell current inhibition; read-out: Kv1.3_IC50
Protocol: The assay described below is used to evaluate the disclosed compound's activities as Kv1.3 potassium channel blockers.
CHO-K1 cells stably expressing Kv1.3 were grown in DMEM containing 10% heat-inactivated FBS, 1 mM Sodium Pyruvate, 2 mM L-Glutamine and G418 (500 μg/ml).
All compounds were dissolved in DMSO at 30 mM.
The currents were evoked by applying 100 ms depolarizing pulses from −90 mV (holding potential) to +40 mV were applied with 0.1 Hz frequency. […] 10 second breaks were used between pulse trains (see Table A below).
Data were sampled at 10 kHz without filtering. Passive leak currents were subtracted online using a P/4 procedure (HEKA Elektronik Dr. Schulze GmbH). […] Total compound incubation time before the next pulse train was not longer than 10 seconds. Peak current inhibition was observed during compound equilibration.

T1 sequence (P22001 whole entry): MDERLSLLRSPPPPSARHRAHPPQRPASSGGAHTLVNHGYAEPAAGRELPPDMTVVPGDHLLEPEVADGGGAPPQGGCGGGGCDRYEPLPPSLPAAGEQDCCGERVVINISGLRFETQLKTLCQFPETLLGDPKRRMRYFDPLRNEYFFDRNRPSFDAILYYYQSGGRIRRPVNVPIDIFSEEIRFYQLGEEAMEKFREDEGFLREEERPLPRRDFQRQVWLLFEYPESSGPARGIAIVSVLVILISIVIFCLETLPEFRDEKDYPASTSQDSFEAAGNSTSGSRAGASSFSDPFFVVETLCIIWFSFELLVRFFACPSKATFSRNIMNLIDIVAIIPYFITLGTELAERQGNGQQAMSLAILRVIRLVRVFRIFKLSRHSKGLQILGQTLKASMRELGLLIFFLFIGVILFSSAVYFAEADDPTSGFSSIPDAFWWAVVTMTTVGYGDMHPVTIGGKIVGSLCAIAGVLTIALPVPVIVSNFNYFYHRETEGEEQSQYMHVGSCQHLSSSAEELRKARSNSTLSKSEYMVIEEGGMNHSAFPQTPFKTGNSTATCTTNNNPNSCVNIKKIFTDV

Row | SMILES | IC50
1 | CC(C)c1cc(O)c([C@H](N)C2CCN(C(=O)[C@H](O)CO)CC2)cc1Cl [Compound 282, (2R)-1-(4-((R)-amino(5-chloro-2-hydroxy-4-isopropylphenyl)methyl)piperidin-1-yl)-2,3-dihydroxypropan-1-one] | < 30 µM
2 | N[C@H](c1c(O)cc(Cl)c(Cl)c1F)C1CCN(C(=O)[C@H](O)CO)CC1 [Compound 287, (R)-1-(4-((S)-amino(3,4-dichloro-2-fluoro-6-hydroxyphenyl)methyl)piperidin-1-yl)-2,3-dihydroxypropan-1-one] | < 10 µM
3 | N[C@@H](c1cc(Cl)c(C2CCC2)cc1O)C1CCN(C(=O)[C@H](O)CO)CC1 [Compound 288, (2R)-1-[4-[(R)-amino(5-chloro-4-cyclobutyl-2-hydroxyphenyl)methyl]piperidin-1-yl]-2,3-dihydroxypropan-1-one Trifluoroacetic Acid] | < 30 µM
4 | NC(c1cc(Cl)c(Cl)c(F)c1O)C1CCN(C(=O)[C@H](O)CO)CC1 (stereo partly drawn) [Compound 290, (2R)-1-[4-[amino(4,5-dichloro-3-fluoro-2-hydroxyphenyl)methyl]piperidin-1-yl]-2,3-dihydroxypropan-1-one Trifluoroacetic Acid] | < 10 µM
5 | Cc1ccc([C@H](N)C2CCN(C(=O)[C@H](O)CO)CC2)c(O)c1 [Compound 294, (2R)-1-[4-[(R)-amino(2-hydroxy-4-methylphenyl)methyl]piperidin-1-yl]-2,3-dihydroxypropan-1-one Trifluoroacetic Acid] | < 10 µM
6 | N[C@@H](c1cc(Cl)ccc1O)C1CCN(C(=O)[C@H](O)CO)CC1 [Compound 295, (2R)-1-[4-[(R)-amino(5-chloro-2-hydroxyphenyl)methyl]piperidin-1-yl]-2,3-dihydroxypropan-1-one] | < 10 µM
7 | Nc1cnc(C(=O)N2CCC([C@@H](N)c3cc(Cl)c(Cl)cc3O)CC2)cn1 [Compound 307, 2-[(R)-amino[1-(5-aminopyrazine-2-carbonyl)piperidin-4-yl]methyl]-4,5-dichlorophenol trifluoroacetic acid] | < 10 µM
8 | CC1(C(N)c2cc(Cl)c(Cl)cc2O)CCN(C(=O)[C@H](O)CO)CC1 (stereo partly drawn) [Compound 309, (2R)-1-[4-[amino(4,5-dichloro-2-hydroxyphenyl)methyl]-4-methylpiperidin-1-yl]-2,3-dihydroxypropan-1-one Trifluoroacetic Acid] | < 10 µM
9 | N[C@H](c1cc(Cl)c(Cl)cc1O)[C@@H]1CCN(C(=O)[C@H](O)CO)C1 [Compound 310, (2R)-1-[(3R)-3-[(S)-amino(4,5-dichloro-2-hydroxyphenyl)methyl]pyrrolidin-1-yl]-2,3-dihydroxypropan-1-one] | < 10 µM
10 | N[C@@H](c1cc(Cl)c(Cl)cc1O)[C@@H]1CCN(C(=O)[C@H](O)CO)C1 [Compound 311, (2R)-1-[(3R)-3-[(R)-amino(4,5-dichloro-2-hydroxyphenyl)methyl]pyrrolidin-1-yl]-2,3-dihydroxypropan-1-one] | < 10 µM
11 | N[C@@H](c1cc(Cl)c(Cl)cc1O)C1C2CCC1CN(C(=O)[C@H](O)CO)C2 (stereo partly drawn) [Compound 313, (2R)-1-[8-[(R)-amino(4,5-dichloro-2-hydroxyphenyl)methyl]-3-azabicyclo[3.2.1]octan-3-yl]-2,3-dihydroxypropan-1-one Trifluoroacetic Acid] | < 10 µM
12 | N[C@H](c1cc(Cl)c(Cl)cc1O)C1C2CCC1CN(C(=O)[C@H](O)CO)C2 (stereo partly drawn) [Compound 314, (2R)-1-[8-[(S)-amino(4,5-dichloro-2-hydroxyphenyl)methyl]-3-azabicyclo[3.2.1]octan-3-yl]-2,3-dihydroxypropan-1-one Trifluoroacetic Acid] | < 30 µM
13 | N[C@@H](c1cc(Cl)c(Cl)cc1O)C1CC2CC1CN2C(=O)[C@H](O)CO (stereo partly drawn) [Compound 315, (2R)-1-(5-((R)-amino(4,5-dichloro-2-hydroxyphenyl)methyl)-2-azabicyclo[2.2.1]heptan-2-yl)-2,3-dihydroxypropan-1-one Trifluoroacetic Acid] | < 10 µM
14 | N[C@H](c1cc(Cl)c(Cl)cc1O)C1CC2CC1CN2C(=O)[C@H](O)CO (stereo partly drawn) [Compound 316, (2R)-1-(5-((S)-amino(4,5-dichloro-2-hydroxyphenyl)methyl)-2-azabicyclo[2.2.1]heptan-2-yl)-2,3-dihydroxypropan-1-one Trifluoroacetic Acid] | < 10 µM
15 | N[C@@H](c1cc(Cl)c(C2=CCCC2)cc1O)C1CCN(C(=O)[C@H](O)CO)CC1 [Compound 318, (2R)-1-[4-[(R)-amino[5-chloro-4-(cyclopent-1-en-1-yl)-2-hydroxyphenyl]methyl]piperidin-1-yl]-2,3-dihydroxypropan-1-one Trifluoroacetic Acid] | < 30 µM

The next lines start with the values.

Row | IC50 | SMILES
16 | < 0.5 µM | Cc1cc(O)c([C@H](N)C2CCN(C(=O)c3ccc4[nH]c(=O)[nH]c4c3)CC2)cc1Cl [Compound 256, 5-[4-[(R)-amino (5-chloro-2-hydroxy-4-methylphenyl)methyl]piperidine-1-carbonyl]-1,3-dihydro-1,3-benzodiazol-2-one trifluoroacetic acid]
17 | < 0.5 µM | Cc1cc(O)c([C@H](N)C2CCN(C(=O)c3ccc4oc(=O)[nH]c4c3)CC2)cc1Cl [Compound 258, 5-[4-[(R)-amino(5-chloro-2-hydroxy-4-methylphenyl)methyl]piperidine-1-carbonyl]-3H-1,3-benzoxazol-2-one formic acid]
18 | < 0.5 µM | Cc1cc(O)c([C@H](N)C2CCN(C(=O)c3ccc4c(c3)CCC(=O)N4)CC2)cc1Cl [Compound 259, 6-[4-[(R)-amino (5-chloro-2-hydroxy-4-methylphenyl)methyl]piperidine-1-carbonyl]-3,4-dihydro-1H-quinolin-2-one trifluoroacetic acid]
19 | < 0.5 µM | N[C@@H](c1cc(Cl)c(Cl)cc1O)C1CCN(C(=O)C2CNC(=O)O2)CC1 (stereo partly drawn) [Compound 261, 5-[4-[(R)-amino(4,5-dichloro-2-hydroxyphenyl)methyl]piperidine-1-carbonyl]-1,3-oxazolidin-2-one trifluoroacetic acid]
20 | < 0.5 µM | Cc1cc(O)c([C@H](N)C2CCN(C(=O)c3ccc4c(c3)NC(=O)C4)CC2)cc1Cl [Compound 263, 6-[4-[(R)-amino (5-chloro-2-hydroxy-4-methylphenyl)methyl]piperidine-1-carbonyl]-1,3-dihydroindol-2-one trifluoroacetic acid]
21 | < 0.5 µM | Cc1cc(O)c([C@H](N)C2CCN(C(=O)c3ccc4c(c3)OCC(=O)N4)CC2)cc1Cl [Compound 265, 7-[4-[(R)-amino(5-chloro-2-hydroxy-4-methylphenyl)methyl]piperidine-1-carbonyl]-2,4-dihydro-1,4-benzoxazin-3-one trifluoroacetic acid]
22 | < 0.5 µM | N[C@@H](c1c(O)cc(Cl)c(Cl)c1F)C1CCN(C(=O)c2c[nH]c(=O)c(Cl)c2)CC1 [Compound 266, 5-[4-[(R)-amino(3,4-dichloro-2-fluoro-6-hydroxyphenyl)methyl]piperidine-1-carbonyl]-3-chloro-1H-pyridin-2-one Trifluoroacetic Acid]
23 | < 0.5 µM | Cc1cc(O)c([C@H](N)C2CCN(C(=O)c3ccc4c(c3)CC(=O)N4)CC2)cc1Cl [Compound 267, 5-[4-[(R)-amino (5-chloro-2-hydroxy-4-methylphenyl)methyl]piperidine-1-carbonyl]-1,3-dihydroindol-2-one trifluoroacetic acid]
24 | < 0.5 µM | CN1CC(C(=O)N2CCC([C@@H](N)c3cc(Cl)c(Cl)cc3O)CC2)OCC1=O (stereo partly drawn) [Compound 268, 6-[4-[(R)-amino(4,5-dichloro-2-hydroxyphenyl)methyl]piperidine-1-carbonyl]-4-methylmorpholin-3-one trifluoroacetic acid]
25 | < 10 µM | Cc1cc(O)c([C@H](N)C2CCN(C(=O)c3ccc4c(c3)NC(=O)CO4)CC2)cc1Cl [Compound 269, 6-[4-[(R)-amino (5-chloro-2-hydroxy-4-methylphenyl)methyl]piperidine-1-carbonyl]-2,4-dihydro-1,4-benzoxazin-3-one]
26 | < 0.5 µM | Cc1cc(O)c([C@H](N)C2CCN(C(=O)c3cc(Cl)c(=O)n(C)c3)CC2)cc1Cl [Compound 270, 5-[4-[(R)-amino (5-chloro-2-hydroxy-4-methylphenyl)methyl]piperidine-1-carbonyl]-3-chloro-1-methyl-pyridin-2-one trifluoroacetic acid]
27 | < 10 µM | Cc1cc(O)c([C@H](N)C2CCN(C(=O)c3ccc4[nH]c(=O)oc4c3)CC2)cc1Cl [Compound 271, 6-[4-[(R)-amino(5-chloro-2-hydroxy-4-methylphenyl)methyl]piperidine-1-carbonyl]-3H-1,3-benzoxazol-2-one]
28 | < 10 µM | Cc1cc(O)c([C@H](N)C2CCN(C(=O)c3ccc4c(c3)NC(=O)CC4)CC2)cc1Cl [Compound 273, 7-[4-[(R)-amino (5-chloro-2-hydroxy-4-methylphenyl)methyl]piperidine-1-carbonyl]-3,4-dihydro-1H-quinolin-2-one trifluoroacetic acid]
29 | < 10 µM | N[C@@H](c1cc(Cl)c(F)cc1O)C1CCN(C(=O)[C@H](O)CO)CC1 [Compound 285, (2R)-1-[4-[(R)-amino(5-chloro-4-fluoro-2-hydroxyphenyl)methyl]piperidin-1-yl]-2,3-dihydroxypropan-1-one Trifluoroacetic Acid]
30 | < 10 µM | N#Cc1cc(O)c([C@H](N)C2CCN(C(=O)[C@H](O)CO)CC2)cc1Cl [Compound 286, 4-[(R)-amino([1-[(2R)-2,3-dihydroxypropanoyl]piperidin-4-yl])methyl]-2-chloro-5-hydroxybenzonitrile Trifluoroacetic Acid]
